Like-named read-outs stand apart in the source and are kept apart here. *1 amine or outer side, *2 acyl side, *3 side chain or, on linkers, in order; H or OH if unused. Where a SMILES comes first, the peptide text is derived from it. [ ]: non-standard residue; d: D form. The star is where a group is joined. X2 = O=C(O)c1cc(NC(=S)*)ccc1-c1c2ccc(=O)cc-2oc2cc(O)ccc12; X1 = O=C([C@H](Cn1cc(P(=O)(O)O)nn1)N[*:1])[*:2]; pY = N[C@@H](Cc1ccc(OP(=O)(O)O)cc1)C(=O)O; phTz = not defined here; GABA = NCCCC(=O)O
What was measured:
[1] = pKa determination by 31P NMR pH titration; format: physicochemical
Protocol: NMR data were collected using a Bruker DPX300 and analysed using MestReNova software. Experiments were carried out 121 MHz using peptide S1 or S2 at a concentration of 10 mM in 10% D2O in H2O (v/v, 2 mL) with an external standard of tris-carboxyethyl phosphine (TCEP) in H2O with a δ value set at 16.30 ppm.5 The pH of the solution was measured and adjusted by addition of 100 mM NaOH in 10% D2O in H2O (v/v) in portions of 5 µL. At higher pH values significant signal-broadening was observed, which precluded accurate determination of chemical shifts and such results were not included in calculations to determine pKa’s. The pKa was determined by fitting the observed chemical shift data to a Boltzmann distribution yielding pKas of ~5.8 for pTyr and 5.95 for the phosphotriazole analogue.
Equation )/(1 + exp((x-x0)
)/(1 + exp((x-x0) Chi-Sqr
Reduced Chi-S 0.00117 Value Standard Error
Figure S10. pH titrations of peptides S1 and S2 containing phosphotyrosine (S1, left) and phosphonotriazole (S2, right) 5Determined by a preliminary experiment using TCEP with an external standard of phosphoric acid (with a shift assigned as 0.00 ppm).
(also on this page, place not known: DPX3 00 software . usin g D 2O H 2O ppm. ad justed H 2O ( v/v) 5 signal-broa dening includ ed 31 P Chemical /ppm 0.01607 0.4 31 P Chemical shift /ppm shift)

Grb2 SH2 domain [2] = conditions: cited from earlier work
Source text: We envisaged producing suitable peptides by Fmoc-SPPS and investigating the interaction with proteins known to bind to phosphotyrosine. Our initial test system was the prototypical SH2 phosphotyrosine binding domain from Grb2.[19] […] A)15% SDS-PAGE: Lane 1 - MW markers, 2 & 3 –flow through Ni-NTA column of soluble fraction, 4 & 5 – elution of soluble fraction from Ni-NTA column, 6 – MW markers, 7 – insoluble fraction. B) 15% SDS-PAGE: Lane 1 - MW markers, 2 - insoluble fraction ...

His6-(Grb2-SH2) [3] = molecular target: T1, His6-(Grb2-SH2) (Homo sapiens, UniProt P62993); assay: Competition fluorescence anisotropy/polarisation assay (displacement of 17); format: binding; conditions: for competition / displacement of 17: 200 nM 17 and 175 nM Grb2-SH2, serial dilutions of peptide, pH 7.4
T1 construct: His6-(Grb2-SH2), 13132 Da; made in house
Protocol: (§1) Fluorescence polarization experiments
(§2) Peptides were prepared as described above. Fluorescence polarization assays were carried out in 96 well plates (160 µL per well). All experiments were performed in 50 mM Tris.HCl, 100 mM NaCl pH 7.4 (ITC buffer). 2.5-fold or 3-fold dilution series of each peptide were routinely prepared before mixing in the plate well before data acquisition using a Perkin Elmer EnVision™ 2103 MultiLabel plate reader
(§3) Determination of binding of FITC-pY peptide 17 to Grb2-SH2 domain
(§4) Grb2-SH2 was serially diluted through ITC buffer containing 100 nM peptide 17 in triplicate and the fluorescence measured in parallel and perpendicular channels. The instrumental G factor for each experiment was approximated by assuming the anisotropy r = 0 for the free peptide. For each data point the total intensity I and anisotropy r were then determined by application of equations 3 and 4 below. Data were fit using a logistic model to obtain limiting maximum and minimum values […]
(§5) upon binding of the protein and the fraction bound was therefore calculated using equation 5 where λ = Ibound/Ifree. The fraction […]
(§6) IT = Iparallel+ 2GI perpendicular (3) r = Iparallel− GI perpendicular (4)
(§7) F = r − rmin where R = Ibound (5) […]
Competition binding assay […]
fitting using a logistic model to obtain an IC50 value.

[4] = molecular target: T2, full-length Grb2 purified as a glutathione S-transferase (GST) fusion (GST-Grb2) (Homo sapiens, UniProt P62993); assay: ITC of peptides into full-length GST-Grb2; format: binding
T2 construct: made in house; host or cells: E. coli BL21-Gold (DE3)
Source text: Protein expression and purification
Isothermal Titration Calorimetry (ITC)

[5] = molecular target: T3, monomeric His6-(Grb2-SH2), Grb2 SH2 domain (Homo sapiens, UniProt P62993); assay: ITC of peptides into monomeric His6-(Grb2-SH2) (late-eluting SEC peak 2); format: binding; conditions: for ITC outcome, standard conditions: final ratio of ligand to protein 2:1
T3 construct: His6-(Grb2-SH2), 13132 Da; made in house
Source text: (3 pictures or pasted objects on this page, not shown here)
(5 pictures or pasted objects on this page, not shown here)

His6-(Grb2-SH2) [6] = molecular target: T1, His6-(Grb2-SH2); assay: Fluorescence anisotropy direct binding of FITC-pY peptide 17; conditions: 100 nM peptide 17, Grb2-SH2 serially diluted, triplicate; 50 mM Tris.HCl, 100 mM NaCl pH 7.4; fraction bound corrected for quenching; read-out: binding constant (Kd) by fluorescence anisotropy
Protocol: as §1, §2, §3, §4, §5, §6, §7
Competition binding assay
Grb2-SH2. […]

Grb2 SH2 domain [7] = assay: Literature affinities for Grb2-SH2; format: binding; conditions: cited tripeptide Kd compared with own Kd of 11

T3 sequence (P62993 with tags, fused parts or gaps): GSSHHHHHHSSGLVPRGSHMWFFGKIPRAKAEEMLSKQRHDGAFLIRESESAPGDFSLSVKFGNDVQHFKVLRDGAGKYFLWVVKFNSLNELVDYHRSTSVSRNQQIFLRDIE

C[C@H](NC(=O)CNC(=O)[C@H](C)NC(=O)CNC(=O)[C@H](Cc1ccc(OP(=O)(O)O)cc1)NC(=O)CNC(=O)[C@H](C)NC(=O)CNC(=O)[C@H](C)NC(=O)CNC(=O)[C@@H](N)CS)C(=O)NCC(=O)O [S1, H-Cys-Gly-Ala-Gly-Ala-Gly pTyr-Gly-Ala-Gly-Ala-Gly-OH] (H-CGAGAG[pY]GAGAG-OH)
pKa ([1]; 31P NMR 121 MHz, peptide 10 mM in 10% D2O in H2O, titrated with 100 mM NaOH, Boltzmann fit of chemical shift): ~ 5.8

N[C@@H](Cc1ccc(OP(=O)(O)O)cc1)C(=O)O [compound 4, phosphotyrosine]
pKa ([1]; NMR titrations (of peptides containing the residue), phosphoryl group): 5.8

CC(=O)N[C@@H](CO)C(=O)N[C@@H](Cc1ccc(OP(=O)(O)O)cc1)C(=O)N[C@H](C(=O)N[C@@H](CC(N)=O)C(=O)N[C@H](C(=O)N[C@@H](CCC(N)=O)C(N)=O)C(C)C)C(C)C [compound 11, AcHN-Ser-pTyr-Val-Asn-Val-Gln-NH2, reference compound] (Ac-S[pY]VNVQ-NH2)
Kd (Grb2 SH2 domain [2]; literature value for Shc-derived hexapeptide, read-out: Kd for Grb2 SH2 domain): 200 nM | IC50 (His6-(Grb2-SH2) [3]): 442 ± 80 nM | competition / displacement of 17 (His6-(Grb2-SH2) [3]): Binding (displacement of 17) was observed | Kd [4]: 196 ± 21 nM

CC(=O)N[C@@H](CO)C(=O)N[C@@H](Cn1cc(P(=O)(O)O)nn1)C(=O)N[C@H](C(=O)N[C@@H](CC(N)=O)C(=O)N[C@H](C(=O)N[C@@H](CCC(N)=O)C(N)=O)C(C)C)C(C)C [compound 16, AcHN-Ser-pTz-Val-Asn-Val-Gln-NH2] (Ac-S[X1]VNVQ-NH2)
ITC outcome, standard conditions [5]: inconclusive | competition / displacement of 17 (His6-(Grb2-SH2) [3]): Binding (displacement of 17) was observed

CC(C)[C@H](NC(=O)[C@H](CC(N)=O)NC(=O)[C@@H](NC(=O)[C@H](Cc1ccc(OP(=O)(O)O)cc1)NC(=O)[C@H](CO)NC(=O)CCCNC(=S)Nc1ccc(-c2c3ccc(=O)cc-3oc3cc(O)ccc23)c(C(=O)O)c1)C(C)C)C(=O)N[C@@H](CCC(N)=O)C(N)=O [compound 17, FITC-Gaba-Ser-pTyr-Val-Asn-Val-Gln-NH2] ({X2-GABA}-S[pY]VNVQ-NH2)
Kd (His6-(Grb2-SH2) [6]): 283 ± 18 nM

AcHN-Ser-His-Val-Asn-Val-Gln-NH2 [compound 19]
competition / displacement of 17 (His6-(Grb2-SH2) [3]): No competition

AcHN-Ser-Tyr-Val-Asn-Val-Gln-NH2 [compound 18]
competition / displacement of 17 (His6-(Grb2-SH2) [3]): No competition

AcHN-Ser-pSer-Val-Asn-Val-Gln-NH2 [compound 20]
competition / displacement of 17 (His6-(Grb2-SH2) [3]): No competition

AcHN-Ser-pThr-Val-Asn-Val-Gln-NH2 [compound 21]
competition / displacement of 17 (His6-(Grb2-SH2) [3]): No competition

AcHN-Ser-phTz-Val-Asn-Val-Gln-NH2 ({Ac-Ser-phTz}-VNVQ-NH2; reading uncertain; also: printed as AcHN-Ser-phTz-Val-Asn-Val-Gln-NH2) [compound 15]
ITC binding outcome, low c-value ([5]; low c-value conditions, final ratio of ligand to protein 8:1, indistinguishable from titration into buffer): no binding | ITC outcome, standard conditions [5]: inconclusive | competition / displacement of 17 (His6-(Grb2-SH2) [3]): No competition | ITC titration outcome ([4]; ITC, peptide titrated into GST-Grb2, 25 °C, ITC buffer pH 7.4): inconclusive

AcHN-pTyr-Val-Asn-NH2 [literature control tripeptide for Grb2-SH2]
Kd (Grb2 SH2 domain [2]; literature control tripeptide, main article, read-out: Kd for monomeric Grb2-SH2): 1600 nM | fold lower affinity for monomeric Grb2-SH2 than hexapeptide 11 (Grb2 SH2 domain [7]): ~ 5 fold

H-Cys-Gly-Ala-Gly-Ala-Gly pTz-Gly-Ala-Gly-Ala-Gly-OH [S2]
pKa [1]: 5.95
